Experimental data published in patent publication US20240158446A1, “CYCLIC COMPOUND HAVING SELECTIVE INHIBITORY ACTION ON KRAS OVER HRAS AND NRAS” (CHUGAI SEIYAKU KABUSHIKI KAISHA, priority 2021, published 2024).
Like-named read-outs stand apart in the source and are kept apart here. *1 amine or outer side, *2 acyl side, *3 side chain or, on linkers, in order; H or OH if unused. Where a SMILES comes first, the peptide text is derived from it. Bridges are numbered along the chain shown (N, C = ends). [ ]: non-standard residue; d: D form. The star is where a group is joined. hPhe(3,5-F2-4-CF3) = N[C@@H](CCc1cc(F)c(C(F)(F)F)c(F)c1)C(=O)O; hPhe(3-Cl-4-CF3) = N[C@@H](CCc1ccc(C(F)(F)F)c(Cl)c1)C(=O)O; X40 = CC(C)CN([C@@H](Cc1ccc(C(F)(F)F)cc1)C(=O)[*:2])[*:1]; NPrPhe(4-CF3) = CCCN[C@@H](Cc1ccc(C(F)(F)F)cc1)C(=O)O; X9 = CCCN([C@@H](Cc1ccc(F)cc1)C(=O)[*:2])[*:1]; Pro(4-spirocPr) = O=C(O)[C@@H]1CC2(CC2)CN1; Pip(4,4-F2) = O=C(O)[C@@H]1CC(F)(F)CCN1; NMeGly(cPent) = CN[C@H](C(=O)O)C1CCCC1; Pro(4,4-F2) = O=C(O)[C@@H]1CC(F)(F)CN1; NEtPhe = CCN[C@@H](Cc1ccccc1)C(=O)O; NMeD = CN[C@@H](CC(=O)O)C(=O)O; NMeL = CN[C@@H](CC(C)C)C(=O)O; αMeV = CC(C)[C@](C)(N)C(=O)O; Morpholide = C1CN(*)CCO1; NMeA = CN[C@@H](C)C(=O)O; Ac5c = NC1(C(=O)O)CCCC1; Aze = O=C(O)[C@@H]1CCN1; NPrGly = CCCNCC(=O)O; Sar = CNCC(=O)O

Tests used:
[1] = target: GDP-bound KRAS wild-type protein (Homo sapiens, UniProt P01116); experiment: Binding to KRAS by surface plasmon resonance (SPR), Single Cycle Kinetics; details: GDP-bound KRAS wild-type protein, read-out: KRAS KD
[2] = target: GDP-bound HRAS wild-type protein (Homo sapiens, UniProt P01112); experiment: Binding to HRAS by surface plasmon resonance (SPR), Single Cycle Kinetics; details: SPR, GDP-bound HRAS wild-type protein vs GDP-bound KRAS wild-type protein
[3] = target: GDP-bound NRAS wild-type protein (Homo sapiens, UniProt P01111); experiment: Binding to NRAS by surface plasmon resonance (SPR), Single Cycle Kinetics; details: SPR, GDP-bound NRAS wild-type protein vs GDP-bound KRAS wild-type protein
[4] = SPR Single Cycle Kinetics, 1:1 binding model

Chain of GDP-bound HRAS wild-type protein (P01112 whole entry): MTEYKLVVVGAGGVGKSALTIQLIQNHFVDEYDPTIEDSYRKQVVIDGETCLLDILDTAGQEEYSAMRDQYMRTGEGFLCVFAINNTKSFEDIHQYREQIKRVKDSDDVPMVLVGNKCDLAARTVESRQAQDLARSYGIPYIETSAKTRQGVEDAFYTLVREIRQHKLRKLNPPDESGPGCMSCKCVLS
Chain of GDP-bound NRAS wild-type protein (P01111 whole entry): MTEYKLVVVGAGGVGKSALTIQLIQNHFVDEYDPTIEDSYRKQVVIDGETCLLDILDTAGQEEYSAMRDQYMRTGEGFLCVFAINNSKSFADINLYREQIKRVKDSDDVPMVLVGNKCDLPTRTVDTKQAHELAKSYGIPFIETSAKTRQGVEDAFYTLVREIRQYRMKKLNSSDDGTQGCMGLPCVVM
Chain of GDP-bound KRAS wild-type protein (P01116 whole entry): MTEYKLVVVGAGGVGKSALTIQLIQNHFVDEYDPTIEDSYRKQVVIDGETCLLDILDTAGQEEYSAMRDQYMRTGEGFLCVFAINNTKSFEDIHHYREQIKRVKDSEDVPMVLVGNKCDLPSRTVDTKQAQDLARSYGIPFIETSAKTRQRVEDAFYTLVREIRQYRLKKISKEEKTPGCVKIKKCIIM

Row | Compound | Kd ([1]; SPR, Single Cycle Kinetics) | Kd [1, 4] | HRAS/KRAS (ratio of KD value for HRAS to KD value for KRAS) [2] | NRAS/KRAS (ratio of KD value for NRAS to KD value for KRAS) [3] | HRAS/KRAS (ratio of KD value with respect to HRAS to KD value with respect to KRAS) [2] | NRAS/KRAS (ratio of KD value with respect to NRAS to KD value with respect to KRAS) [3]
1 | CCC[C@H]1C(=O)N[C@@H](C2CCCC2)C(=O)N(C)CC(=O)N(C)[C@H]2C/C=C\CCN(C2=O)[C@@H](Cc2ccc(C)cc2)C(=O)N(C)CC(=O)N[C@@H](CCc2cc(F)c(C(F)(F)F)c(F)c2)C(=O)N2CC3(CC3)C[C@H]2C(=O)NC2(CC(C)(C)C2)C(=O)N(C)[C@@H](CC(C)(C)C)C(=O)N(C)[C@H](C(=O)N(C)C)CC(=O)N1C [PP2999] | 130 pM |  | A (a compound having 10 or more and less than 20 is denoted as A) | AA (a compound having 20 or more is denoted as AA) |  | 
2 | CCCN(C)C(=O)[C@@H]1CC(=O)N(C)[C@@H](C(C)C)C(=O)N[C@@H]([C@@H](C)CC)C(=O)N(C)CC(=O)N(C)[C@H]2C/C=C\CCN(C2=O)[C@@H](Cc2ccc(C(F)(F)F)cc2)C(=O)N(C)CC(=O)N[C@@H](CCc2cc(F)c(C(F)(F)F)c(F)c2)C(=O)N2C[C@@H](C)C[C@H]2C(=O)NC2(CCC2)C(=O)N(C)[C@@H](C2CCCC2)C(=O)N1C [PP2079] | 290 pM |  | A (a compound having 10 or more and less than 20 is denoted as A) | A (a compound having 10 or more and less than 20 is denoted as A) |  | 
3 | CCCN1CC(=O)NC2(CCCC2)C(=O)N(C)[C@@H](C2CCCC2)C(=O)N(C)[C@H](C(=O)N2CCOCC2)CC(=O)N(C)[C@@H](CC(C)C)C(=O)N[C@@H]([C@@H](C)CC)C(=O)N2CC[C@H]2C(=O)N(C)CC(=O)N(CCC)[C@@H](Cc2ccc(C(F)(F)F)cc2)C(=O)N(C)CC(=O)N[C@@H](CCc2ccc(C(F)(F)F)c(Cl)c2)C1=O [PP0315] ([NMeL]I[Aze][Sar][NPrPhe(4-CF3)][Sar][hPhe(3-Cl-4-CF3)][NPrGly][Ac5c][NMeGly(cPent)][NMeD]-Morpholide; lactam N-11) |  | 3800 pM | B (a compound having 3 or more and less than 10 is denoted as B) | B (a compound having 3 or more and less than 10 is denoted as B) |  | 
4 | CC[C@H](C)[C@@H]1NC(=O)[C@H](CC(C)C)N(C)C(=O)C[C@@H](C(=O)N2CCOCC2)N(C)C(=O)[C@H](C2CCCC2)N(C)C(=O)C2(CCCC2)NC(=O)[C@@H]2CCCN2C(=O)[C@H](CCc2ccc(C(F)(F)F)c(Cl)c2)NC(=O)CN(C)C(=O)[C@H](Cc2ccc(C(F)(F)F)cc2)N(CC(C)C)C(=O)[C@@H]2CCN2C(=O)[C@H](C)N(C)C1=O [PP0107] ([NMeL]I[NMeA][Aze][X40][Sar][hPhe(3-Cl-4-CF3)]P[Ac5c][NMeGly(cPent)][NMeD]-Morpholide; lactam N-11) |  | 1700 pM | C (A compound having a KD ratio of 0.1 or more and less than 3 is denoted as C) | C (A compound having a KD ratio of 0.1 or more and less than 3 is denoted as C) |  | 
5 | CCCN1C(=O)[C@@H]2CCN2C(=O)CN(C)C(=O)[C@H]([C@@H](C)CC)NC(=O)[C@H](CC(C)C)N(C)C(=O)C[C@@H](C(=O)N2CCOCC2)N(C)C(=O)[C@H](C2CCCC2)N(C)C(=O)[C@](C)(C(C)C)NC(=O)[C@@H]2CCCN2C(=O)[C@H](CCc2cc(F)c(C(F)(F)F)c(F)c2)NC(=O)CN(C)C(=O)[C@@H]1Cc1ccc(C(F)(F)F)cc1 [PP0792] ([NMeL]I[Sar][Aze][NPrPhe(4-CF3)][Sar][hPhe(3,5-F2-4-CF3)]P[αMeV][NMeGly(cPent)][NMeD]-Morpholide; lactam N-11) |  | 900 pM |  |  | B (a compound having 3 or more and less than 10 is denoted as B) | C (A compound having a KD ratio of 0.1 or more and less than 3 is denoted as C)
6 | CCO[C@@H]1C[C@H]2C(=O)NC3(CC(C)(C)C3)C(=O)N(C)[C@@H](C(CC)CC)C(=O)N(C)[C@H](C(=O)N(C)C)CC(=O)N(C)[C@@H](C(C)C)C(=O)N[C@@H]([C@@H](C)CC)C(=O)N(C)CC(=O)N(C)[C@H]3C/C=C\CCN(C3=O)[C@@H](Cc3ccc(C(F)(F)F)cc3)C(=O)N(C)CC(=O)N[C@@H](CCc3ccc(C(F)(F)F)c(Cl)c3)C(=O)N2C1 [PP2140] | 700 pM |  | A (a compound having 10 or more and less than 20 is denoted as A) | AA (a compound having 20 or more is denoted as AA) |  | 

The remaining molecules from weak to strong by Kd [1, 4], led by results:

Row | Kd ([1]; SPR, Single Cycle Kinetics) | Kd [1, 4] | Compound | HRAS/KRAS (ratio of KD value for HRAS to KD value for KRAS) [2] | NRAS/KRAS (ratio of KD value for NRAS to KD value for KRAS) [3] | HRAS/KRAS (ratio of KD value with respect to HRAS to KD value with respect to KRAS) [2] | NRAS/KRAS (ratio of KD value with respect to NRAS to KD value with respect to KRAS) [3]
7 |  | 850 pM | CC[C@H](C)[C@@H]1NC(=O)[C@H](CC(C)C)N(C)C(=O)C[C@@H](C(=O)N2CCOCC2)N(C)C(=O)[C@H](C2CCCC2)N(C)C(=O)C2(CCC2)NC(=O)[C@@H]2CCCN2C(=O)[C@H](CCc2cc(F)c(C(F)(F)F)c(F)c2)NC(=O)CN(C)C(=O)[C@H](Cc2ccc(C(F)(F)F)cc2)N2CCCCC[C@@H](C2=O)N(C)C(=O)CN(C)C1=O [PP0497] |  |  | B (a compound having 3 or more and less than 10 is denoted as B) | B (a compound having 3 or more and less than 10 is denoted as B)
8 |  | 750 pM | CCCN1C(=O)[C@@H]2CCN2C(=O)[C@H](C)N(C)C(=O)[C@H]([C@@H](C)CC)NC(=O)[C@H](CC(C)C)N(C)C(=O)C[C@@H](C(=O)N2CCOCC2)N(C)C(=O)[C@H](C2CCCC2)N(C)C(=O)C2(CCCC2)NC(=O)[C@@H]2CC(F)(F)CCN2C(=O)[C@H](CCc2ccc(C(F)(F)F)c(Cl)c2)NC(=O)CN(C)C(=O)[C@@H]1Cc1ccc(C(F)(F)F)cc1 [PP0285] ([NMeL]I[NMeA][Aze][NPrPhe(4-CF3)][Sar][hPhe(3-Cl-4-CF3)][Pip(4,4-F2)][Ac5c][NMeGly(cPent)][NMeD]-Morpholide; lactam N-11) | B (a compound having 3 or more and less than 10 is denoted as B) | C (A compound having a KD ratio of 0.1 or more and less than 3 is denoted as C) |  | 
9 |  | 590 pM | CCO[C@@H]1C[C@H]2C(=O)NC3(CCC3)C(=O)N(C)[C@@H](C3CCCC3)C(=O)N(C)[C@H](C(=O)N3CCOCC3)CC(=O)N(C)[C@@H](CC(C)C)C(=O)N[C@@H]([C@@H](C)CC)C(=O)N(C)CC(=O)N(C)[C@H]3CCCCCN(C3=O)[C@@H](Cc3ccc(C(F)(F)F)cc3)C(=O)N(C)CC(=O)N[C@@H](CCc3cc(F)c(C(F)(F)F)c(F)c3)C(=O)N2C1 [PP0467] |  |  | B (a compound having 3 or more and less than 10 is denoted as B) | B (a compound having 3 or more and less than 10 is denoted as B)
10 |  | 410 pM | CC[C@H](C)[C@@H]1NC(=O)[C@H](CC(C)C)N(C)C(=O)C[C@@H](C(=O)N2CCOCC2)N(C)C(=O)[C@H](C2CCCC2)N(C)C(=O)C2(CCCC2)NC(=O)[C@@H]2CCCN2C(=O)[C@H](CCc2ccc(C(F)(F)F)c(Cl)c2)NC(=O)CN(C)C(=O)[C@H](Cc2ccccc2)N(CC)C(=O)[C@@H]2CCN2C(=O)[C@H](C)N(C)C1=O [PP0215] ([NMeL]I[NMeA][Aze][NEtPhe][Sar][hPhe(3-Cl-4-CF3)]P[Ac5c][NMeGly(cPent)][NMeD]-Morpholide; lactam N-11) | C (A compound having a KD ratio of 0.1 or more and less than 3 is denoted as C) | C (A compound having a KD ratio of 0.1 or more and less than 3 is denoted as C) |  | 
11 |  | 240 pM | CCCN1C(=O)CN(C)C(=O)CNC(=O)[C@H]([C@@H](C)CC)NC(=O)[C@H](CC(C)C)N(C)C(=O)C[C@@H](C(=O)N2CCOCC2)N(C)C(=O)[C@H](C2CCCC2)N(C)C(=O)C2(CCCC2)NC(=O)[C@@H]2CC(F)(F)CN2C(=O)[C@H](CCc2ccc(C(F)(F)F)c(Cl)c2)NC(=O)CN(C)C(=O)[C@@H]1Cc1ccc(C(F)(F)F)cc1 [PP0394] ([NMeL]IG[Sar][NPrPhe(4-CF3)][Sar][hPhe(3-Cl-4-CF3)][Pro(4,4-F2)][Ac5c][NMeGly(cPent)][NMeD]-Morpholide; lactam N-11) | C (A compound having a KD ratio of 0.1 or more and less than 3 is denoted as C) | C (A compound having a KD ratio of 0.1 or more and less than 3 is denoted as C) |  | 
12 |  | 140 pM | CCCN1C(=O)CN(C)C(=O)CN(C)C(=O)[C@H]([C@@H](C)CC)NC(=O)[C@H](CC(C)C)N(C)C(=O)C[C@@H](C(=O)N2CCOCC2)N(C)C(=O)[C@H](C2CCCC2)N(C)C(=O)C2(CCCC2)NC(=O)[C@@H]2CC3(CC3)CN2C(=O)[C@H](CCc2ccc(C(F)(F)F)c(Cl)c2)NC(=O)CN(C)C(=O)[C@@H]1Cc1ccc(C(F)(F)F)cc1 [PP0261] ([NMeL]I[Sar][Sar][NPrPhe(4-CF3)][Sar][hPhe(3-Cl-4-CF3)][Pro(4-spirocPr)][Ac5c][NMeGly(cPent)][NMeD]-Morpholide; lactam N-11) | C (A compound having a KD ratio of 0.1 or more and less than 3 is denoted as C) | B (a compound having 3 or more and less than 10 is denoted as B) |  | 
13 |  | 130 pM | CCCN1C(=O)CN(C)C(=O)CN(C)C(=O)[C@H]([C@@H](C)CC)NC(=O)[C@H](CC(C)C)N(C)C(=O)C[C@@H](C(=O)N2CCOCC2)N(C)C(=O)[C@H](C2CCCC2)N(C)C(=O)C2(CCCC2)NC(=O)[C@@H]2CCCN2C(=O)[C@H](CCc2ccc(C(F)(F)F)c(Cl)c2)NC(=O)CN(C)C(=O)[C@@H]1Cc1ccc(F)cc1 [PP0214] ([NMeL]I[Sar][Sar][X9][Sar][hPhe(3-Cl-4-CF3)]P[Ac5c][NMeGly(cPent)][NMeD]-Morpholide; lactam N-11) | C (A compound having a KD ratio of 0.1 or more and less than 3 is denoted as C) | B (a compound having 3 or more and less than 10 is denoted as B) |  | 
